Ki data for 9 molecules are collected here from BindingDB's records for doi:10.1038/sj.bjp.0702293 (Monash University, 1999).

The structures appear in SMILES notation. Where only a bound is given, the exact number is not on record here.

By Ki is commonly meant a measure of affinity in units of concentration, obtained from inhibition or displacement.

Assay [1] deals with 5-hydroxytryptamine receptor 7 (Rattus norvegicus, UniProt P32305).
In assay [2] the target is 5-hydroxytryptamine receptor 7 (Cavia porcellus, UniProt P50407).
Chain of 5-hydroxytryptamine receptor 7 (Cavia porcellus, UniProt P50407) (P50407 whole entry): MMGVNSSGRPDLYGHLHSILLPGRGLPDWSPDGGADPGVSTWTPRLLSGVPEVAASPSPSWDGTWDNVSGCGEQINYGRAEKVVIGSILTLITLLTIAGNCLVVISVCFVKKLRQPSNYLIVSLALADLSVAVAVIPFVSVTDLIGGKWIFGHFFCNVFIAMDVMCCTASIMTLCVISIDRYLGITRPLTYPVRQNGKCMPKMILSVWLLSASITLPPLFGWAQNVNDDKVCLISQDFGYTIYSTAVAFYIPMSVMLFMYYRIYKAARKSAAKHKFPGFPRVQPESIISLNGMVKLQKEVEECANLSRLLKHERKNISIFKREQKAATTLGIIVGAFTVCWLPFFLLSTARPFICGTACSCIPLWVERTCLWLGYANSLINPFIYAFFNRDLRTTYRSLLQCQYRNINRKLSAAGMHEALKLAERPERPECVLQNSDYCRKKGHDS

Chain of 5-hydroxytryptamine receptor 7 (Rattus norvegicus, UniProt P32305) (P32305 whole entry): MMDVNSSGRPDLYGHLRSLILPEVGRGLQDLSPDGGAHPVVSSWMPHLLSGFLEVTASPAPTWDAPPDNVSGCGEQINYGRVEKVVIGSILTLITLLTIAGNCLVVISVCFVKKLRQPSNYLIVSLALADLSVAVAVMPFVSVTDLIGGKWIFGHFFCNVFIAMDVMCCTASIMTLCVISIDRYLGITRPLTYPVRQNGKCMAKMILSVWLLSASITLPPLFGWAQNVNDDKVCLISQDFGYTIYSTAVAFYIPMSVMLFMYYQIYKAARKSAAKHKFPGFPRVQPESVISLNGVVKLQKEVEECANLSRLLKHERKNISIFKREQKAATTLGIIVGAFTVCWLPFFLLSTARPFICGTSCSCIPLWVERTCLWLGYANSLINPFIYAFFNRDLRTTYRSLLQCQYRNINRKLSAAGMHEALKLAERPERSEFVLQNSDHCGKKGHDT

As to `CNS(=O)(=O)Cc1ccc2[nH]cc(CCN(C)C)c2c1` [Sumax], the Ki in assay [1] worked out at 25.1 nM; in assay [2], 100 nM.

Molecule `Cc1nc2n(c(=O)c1CCN1CCC(c3noc4cc(F)ccc34)CC1)CCCC2` [3-{2-[4-(6-Fluoro-benzo[d]isoxazol-3-yl)-piperidin-1-yl]-ethyl}-2-methyl-6,7,8,9-tetrahydro-pyrido[1,2-a]pyrimidin-4-one(risperidone)] yielded a Ki in assay [2] of 0.4 nM.

For `CN1C[C@@H](NS(=O)(=O)N(C)C)C[C@@H]2c3cccc4c3c(cn4C)C[C@H]21` [MESULERGINE], the Ki was found to be 10 nM in assay [1] and 12.6 nM in assay [2].

`CCN(CC)C(=O)[C@@H]1C=C2c3cccc4[nH]cc(c34)C[C@H]2N(C)C1` [(4R,7R)-N,N-diethyl-6-methyl-6,11-diazatetracyclo[7.6.1.0^{2,7}.0^{12,16}]hexadeca-1(16),2,9,12,14-pentaene-4-carboxamide] returned a Ki in assay [2] of 0.4 nM.

With `CN1C[C@H](CNC(=O)OCc2ccccc2)C[C@@H]2c3cccc4c3c(cn4C)C[C@H]21` [METERGOLINE], the figures for the Ki in assay [1] and in assay [2] were 10 nM and 1.58 nM, respectively.

`COc1ccc2[nH]cc(CCN)c2c1` [tryptamine, 5-Methoxy] displayed a Ki in assay [2] of 0.25 nM.

Molecule `NCCc1c[nH]c2ccc(O)cc12` [[3H]-5-HT] yielded a Ki in assay [2] of 0.1 nM.

As to `CC(C)NCC(O)COc1cccc2[nH]ccc12` (centres undefined) [LB-46], the figures for the Ki in assay [1] and in assay [2] were > 10000 nM and 501 nM, respectively.

`Cc1nc2sccn2c(=O)c1CCN1CCC(=C(c2ccc(F)cc2)c2ccc(F)cc2)CC1`: the Ki is 25.1 nM in assay [1] and 5.01 nM in assay [2].
